Patent publication US20260000698A1 (priority 2022, published 2026)

How the values were obtained:
[1] = molecular target: T1, SARS-CoV-2 Nsp14 MTase (Severe acute respiratory syndrome coronavirus 2, UniProt P0DTD1); test: biochemical; format: biochemical; conditions: for IC50: LC-MS/MS detection of SAH, read-out: MTase IC50
[2] = system: A549/ACE2/TMPRSS2 cells; test: in vitro; conditions: for CC50: NT (nontoxic): cell viability at 50 μM; for CC50: A549/ACE2/TMPRSS2 cells; for cytotoxicity: human, 100 μM
Procedure: Percentage of infected cells was determined by dividing the number of infected cells by the total number of cells per well. The percentage of infected cells and total number of cells for each treatment was plotted into GraphPad prism (GraphPad Software; San Diego, CA, USA) to perform a non-linear regression analysis, generate infectious dose-response curves and to calculate EC50 and CC50 values.
Viability assays for the non-infected A549/ACE2/TMPRSS2 cells were performed using the 3-(4,5-dimethylthiazol-2-yl)-5-(3-carboxymethoxyphenyl)-2-(4-sulfophenyl)-2H-tetrazolium (MTS)-based tetrazolium reduction CellTiter 96 Aqueous Non-Radioactive cell proliferation assay (Promega G5430; Madison, WI) as described. Assays were conducted using parallel plates to those used in the immunofluorescence assay. Experimental details (cell line, number of cells seeded and incubation time) corresponded to those used in the immunofluorescence assay above. The data obtained were used to calculate the CC50 value using GraphPad Prism software.

[3] = system: SARS-CoV-2 isolate USA-WA1/2020; conditions: inhibition at 50 μM
[4] = system: SARS-CoV-2 isolate USA-WA1/2020; test: microbe, parasite or virus in culture; conditions: Severe acute respiratory syndrome coronavirus 2, A549-ACE2, 48 h
[5] = molecular target: T1, SARS-CoV-2 Nsp14 MTase; test: Nsp14 MTase assay detected with MTase-Glo methyltransferase assay kit; format: biochemical; conditions: for IC50: methylation reaction detected by MTase-Glo kit; for inhibition at 10 µM: read-out: MTase % inhibition at 10 μM
Procedure: Detection using MTase-Glo™ methyltransferase assay kits. The assay was run according to Promega MTase-Glo™ kit (V7601) instructions. […]. GpppA was purchased by New England Biolabs and used at a final concentration of 3 uM/reaction. […] […] Compounds, Nsp14, GpppA at MTase-Glo™ reagent were pre-incubated for 15 min at room temperature. The assay was started with addition of SAM at final concentration of 1 uM/reaction (negative control had no SAM). The assay plate was mixed well with a plate shaker after each addition. The reaction was incubated for 15 min at 30° C. MTase-Glo™ detection solution was added, and the plate was incubated 60 min at room temperature. Luminescence was read on an M5e spectrophotometer.

Nc1ncnc2c1ncn2[C@@H]1O[C@H](CNCc2ccc3ccccc3c2)[C@@H](O)[C@H]1O [Compound 1, (2R,3R,4S,5R)-2-(6-Amino-9H-purin-9-yl)-5-(((naphthalen-2-ylmethyl)amino)methyl)tetrahydrofuran-3,4-diol]
IC50 [1]: 9.6 µM
CC50: NT (nontoxic) [2]: NT^b (NT, nontoxic, >95% cell viability at 50 μM;)
EC50: NA (not active) [3]: NA^a (NA, not active, <15% inhibition at 50 μM.)

Nc1ncnc2c1ncn2[C@@H]1O[C@H](CNC(=O)c2ccc3ccccc3c2)[C@@H](O)[C@H]1O [Compound 2, N-(((2R,3S,4R,5R)-5-(6-Amino-9H-purin-9-yl)-3,4-dihydroxytetrahydrofuran-2-yl)methyl)-2-naphthamide]
IC50 [1]: 2.7 µM
CC50: NT (nontoxic) [2]: NT^b (NT, nontoxic, >95% cell viability at 50 μM;)
EC50: NA (not active) [3]: NA^a (NA, not active, <15% inhibition at 50 μM.)

Nc1ncnc2c1ncn2[C@@H]1O[C@H](CNS(=O)(=O)c2ccc3cccnc3c2)[C@@H](O)[C@H]1O [Compound 4, N-(((2R,3S,4R,5R)-5-(6-Amino-9H-purin-9-yl)-3,4-dihydroxytetrahydrofuran-2-yl)methyl)quinoline-7-sulfonamide]
MTase inhibitory activity [1]: comparable to that of compound 1
IC50 [1]: 0.069 µM
CC50: NT (nontoxic) [2]: NT^b (NT, nontoxic, >95% cell viability at 50 μM;)
EC50: NA (not active) [3]: NA^a (NA, not active, <15% inhibition at 50 μM.)

Nc1ncnc2c1ncn2[C@@H]1O[C@H](CNS(=O)(=O)c2ccc3nc(Cl)ccc3c2)[C@@H](O)[C@H]1O [Compound 5, N-(((2R,3S,4R,5R)-5-(6-Amino-9H-purin-9-yl)-3,4-dihydroxytetrahydrofuran-2-yl)methyl)-2-chloroquinoline-6-sulfonamide]
IC50 [1]: 0.44 µM
fold reduction in inhibitory activity ([1]; on replacing 2-naphthalene): 7 fold
CC50: NT (nontoxic) [2]: NT^b (NT, nontoxic, >95% cell viability at 50 μM;)
EC50: NA (not active) [3]: NA^a (NA, not active, <15% inhibition at 50 μM.)

CC(=O)O[C@@H]1[C@H](OC(C)=O)[C@@H](CNS(=O)(=O)c2ccc3ccccc3c2)O[C@H]1n1cnc2c(N)ncnc21 [Compound 8, (2R,3R,4R,5R)-2-(6-Amino-9H-purin-9-yl)-5-((naphthalene-2-sulfonamido)methyl)tetrahydrofuran-3,4-diyl diacetate]
CC50 [2]: > 100 µM
cytotoxicity [2]: minimal cytotoxicity at 100 μM
EC50 [4]: 53 µM

CC(=O)Nc1ncnc2c1ncn2[C@@H]1O[C@H](CNS(=O)(=O)c2ccc3ccccc3c2)[C@@H](OC(C)=O)[C@H]1OC(C)=O [Compound 9, (2R,3R,4R,5R)-2-(6-Acetamido-9H-purin-9-yl)-5-((naphthalene-2-sulfonamido)methyl)tetrahydrofuran-3,4-diyl diacetate]
CC50 [2]: > 100 µM
cytotoxicity [2]: minimal cytotoxicity at 100 μM
EC50 [4]: 61 µM

Nc1ncnn2c([C@@H]3O[C@H](CNS(=O)(=O)c4ccc5c(Cl)cccc5c4)[C@@H](O)[C@H]3O)ccc12 [Compound 39, N-(((2R,3S,4R,5S)-5-(4-aminopyrrolo[2,1-f][1,2,4]triazin-7-yl)-3,4-dihydroxytetrahydrofuran-2-yl)methyl)-5-chloronaphthalene-2-sulfonamide]
IC50 [5]: 0.049 µM

COc1ccc(S(=O)(=O)NC[C@H]2O[C@@H](c3ccc4c(N)ncnn34)[C@H](O)[C@@H]2O)cc1C#N [Compound 41, N-(((2R,3S,4R,5S)-5-(4-aminopyrrolo[2,1-f][1,2,4]triazin-7-yl)-3,4-dihydroxytetrahydrofuran-2-yl)methyl)-3-cyano-4-methoxybenzenesulfonamide]
inhibition at 10 µM [5]: 94%

COc1ccc(S(=O)(=O)NC[C@H]2O[C@@H](c3ccc4c(N)ncnn34)[C@H](O)[C@@H]2O)cc1[N+](=O)[O-] [Compound 43, N-(((2R,3S,4R,5S)-5-(4-aminopyrrolo[2,1-f][1,2,4]triazin-7-yl)-3,4-dihydroxytetrahydrofuran-2-yl)methyl)-4-methoxy-3-nitrobenzenesulfonamide]
inhibition at 10 µM [5]: 79%

Nc1ncnn2c([C@@H]3O[C@H](CNS(=O)(=O)c4cccc(-c5ccccc5)c4)[C@@H](O)[C@H]3O)ccc12 [Compound 45, N-(((2R,3S,4R,5S)-5-(4-Aminopyrrolo[2,1-f][1,2,4]triazin-7-yl)-3,4-dihydroxytetrahydrofuran-2-yl)methyl)-[1,1′-biphenyl]-3-sulfonamide]
inhibition at 10 µM [5]: 85%

Nc1ncnn2c([C@@H]3O[C@H](CNS(=O)(=O)c4ccc(-c5ccccc5)cc4)[C@@H](O)[C@H]3O)ccc12 [Compound 47, N-(((2R,3S,4R,5S)-5-(4-Aminopyrrolo[2,1-f][1,2,4]triazin-7-yl)-3,4-dihydroxytetrahydrofuran-2-yl)methyl)-[1,1′-biphenyl]-4-sulfonamide]
inhibition at 10 µM [5]: 85%

Nc1ncnn2c([C@@H]3O[C@H](CNS(=O)(=O)c4ccc5ccccc5c4)[C@@H](O)[C@H]3O)cc(F)c12 [Compound 51, N-(((2R,3S,4R,5S)-5-(4-Amino-5-fluoropyrrolo[2,1-f][1,2,4]triazin-7-yl)-3,4-dihydroxytetrahydrofuran-2-yl)methyl)naphthalene-2-sulfonamide]
IC50 [5]: 0.032 µM

CCN(C[C@H]1O[C@@H](c2ccc3c(N)ncnn23)[C@H](O)[C@@H]1O)S(=O)(=O)c1ccc2ccccc2c1 [Compound 53, N-(((2R,3S,4R,5S)-5-(4-Aminopyrrolo[2,1-f][1,2,4]triazin-7-yl)-3,4-dihydroxytetrahydrofuran-2-yl)methyl)-N-ethylnaphthalene-2-sulfonamide]
IC50 [5]: 0.156 µM

Nc1ncnc2c([C@@H]3O[C@H](CNS(=O)(=O)c4ccc5ccccc5c4)[C@@H](O)[C@H]3O)csc12 [Compound B12, N-(((2R,3S,4R,5S)-5-(4-Aminothieno[3,2-d]pyrimidin-7-yl)-3,4-dihydroxytetrahydrofuran-2-yl)methyl)naphthalene-2-sulfonamide]
inhibition at 10 µM [5]: 91%

Nc1ncnc2c1ccn2[C@@H]1O[C@H](CNS(=O)(=O)c2ccc3ccccc3c2)[C@@H](O)[C@H]1O [Compound C9, N-(((2R,3S,4R,5R)-5-(4-Amino-7H-pyrrolo[2,3-d]pyrimidin-7-yl)-3,4-dihydroxytetrahydrofuran-2-yl)methyl)naphthalene-2-sulfonamide]
IC50 [5]: 0.019 µM

COc1ccc(S(=O)(=O)NC[C@H]2O[C@@H](n3ccc4c(N)ncnc43)[C@H](O)[C@@H]2O)cc1C#N [Compound C11, N-(((2R,3S,4R,5R)-5-(4-Amino-7H-pyrrolo[2,3-d]pyrimidin-7-yl)-3,4-dihydroxytetrahydrofuran-2-yl)methyl)-3-cyano-4-methoxybenzenesulfonamide]
inhibition at 10 µM [5]: 98%

CCN(C[C@H]1O[C@@H](n2ccc3c(N)ncnc32)[C@H](O)[C@@H]1O)S(=O)(=O)c1ccc(OC)c(C#N)c1 [Compound C13, N-(((2R,3S,4R,5R)-5-(4-Amino-7H-pyrrolo[2,3-d]pyrimidin-7-yl)-3,4-dihydroxytetrahydrofuran-2-yl)methyl)-3-cyano-N-ethyl-4-methoxybenzenesulfonamide]
inhibition at 10 µM [5]: 100%

CCC(CC)COC(=O)[C@H](C)N[P@](=O)(OC[C@H]1O[C@@](C#N)(c2ccc3c(N)ncnn23)[C@H](O)[C@@H]1O)Oc1ccccc1 [remdesivir, reference compound]
CC50 [2]: 43 µM
EC50 [4]: 0.093 µM

Nc1ncnc2c1ncn2[C@@H]1O[C@H](C[C@@H](N)CC[C@H](N)C(=O)O)[C@@H](O)[C@H]1O [sinefungin, reference compound]
CC50: NT (nontoxic) [2]: NT^b (NT, nontoxic, >95% cell viability at 50 μM;)
EC50: NA (not active) [3]: NA^a (NA, not active, <15% inhibition at 50 μM.)
